Source: PubChem BioAssay (NCI)
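The compound was tested at five concentrations on cells cultured in 96-well plates, with a 48-hour exposure period. Here, GI50 denotes the concentration required for 50% inhibition of growth. TGI is the concentration that stops growth completely.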

How the values were obtained:
Experiment in all cases: DTP human tumour cell line panel, 48 h
[1] = tested on: SW-620 colon
[2] = tested on: UACC-257 melanoma
[3] = tested on: SF-295 CNS
[4] = tested on: KM12 colon
[5] = tested on: NCI-H460 lung
[6] = tested on: U251 CNS
[7] = tested on: HCT-116 colon
[8] = tested on: A498 renal
[9] = tested on: UACC-62 melanoma
[10] = tested on: SK-MEL-28 melanoma
[11] = tested on: NCI-H23 lung
[12] = tested on: MDA-MB-435
[13] = tested on: SK-OV-3 ovarian
[14] = tested on: MOLT-4 leukemia
[15] = tested on: HL-60(TB) leukemia
[16] = tested on: HS 578T breast
[17] = tested on: SR leukemia
[18] = tested on: HOP-62 NSCLC
[19] = tested on: SF-539 CNS
[20] = tested on: SNB-19 CNS
[21] = tested on: NCI-H226 lung
[22] = tested on: DU-145 prostate
[23] = tested on: OVCAR-4 ovarian
[24] = tested on: BT-549 breast
[25] = tested on: RXF 393 renal
[26] = tested on: CCRF-CEM leukemia
[27] = tested on: M14 melanoma
[28] = tested on: OVCAR-5 ovarian
[29] = tested on: T-47D breast
[30] = tested on: COLO 205 colon
[31] = tested on: UO-31 renal
[32] = tested on: OVCAR-8 ovarian
[33] = tested on: MCF7 breast
[34] = tested on: PC-3 prostate
[35] = tested on: K-562 leukemia
[36] = tested on: CAKI-1 renal
[37] = tested on: HOP-92 NSCLC
[38] = tested on: NCI-H522 lung
[39] = tested on: HCT-15 colon
[40] = tested on: NCI/ADR-RES ovarian
[41] = tested on: IGROV1 ovarian
[42] = tested on: SF-268 CNS
[43] = tested on: SN12C renal
[44] = tested on: HCC-2998 colon
[45] = tested on: TK-10 renal
[46] = tested on: SNB-75 CNS
[47] = tested on: 786-0 renal
[48] = tested on: MALME-3M melanoma
[49] = tested on: SK-MEL-5 melanoma
[50] = tested on: RPMI-8226 leukemia
[51] = tested on: A549 NSCLC
[52] = tested on: HT29 colon
[53] = tested on: ACHN renal
[54] = tested on: OVCAR-3 ovarian
[55] = tested on: SK-MEL-2 melanoma
[56] = tested on: LOX IMVI melanoma

## CNC(=O)c1nn(C)c2c1C(C)(C)Cc1cnc(Nc3cccc(N4CCN(C)CC4)c3)nc1-2
[1]
  GI50: 287 nM
  TGI: 22400 nM
[2]
  GI50: 386 nM
  TGI: 7090 nM
[3]
  GI50: 332 nM
  TGI: 6840 nM
[4]
  GI50: 51.4 nM
  TGI: 3430 nM
[5]
  GI50: 303 nM
  TGI: 11800 nM
[6]
  GI50: 291 nM
  TGI: 12800 nM
[7]
  GI50: 176 nM
  TGI: 31200 nM
[8]
  GI50: 25.4 nM
  TGI: 389 nM
[9]
  GI50: 369 nM
  TGI: 11600 nM
[10]
  GI50: 1320 nM
  TGI: 13100 nM
[11]
  GI50: 372 nM
  TGI: 9810 nM
[12]
  GI50: 335 nM
  TGI: 11800 nM
[13]
  GI50: 210 nM
  TGI: 7440 nM
[14]
  GI50: 236 nM
  TGI: 10600 nM
[15]
  GI50: 596 nM
  TGI: 6640 nM
[16]
  GI50: 204 nM
  TGI: 2460 nM
[17]
  GI50: 286 nM
  TGI: 7880 nM
[18]
  GI50: 440 nM
  TGI: 17900 nM
[19]
  GI50: 406 nM
  TGI: 3060 nM
[20]
  GI50: 322 nM
  TGI: 28700 nM
[21]
  GI50: 237 nM
  TGI: 9960 nM
[22]
  GI50: 686 nM
  TGI: 14000 nM
[23]
  GI50: 409 nM
  TGI: 44300 nM
[24]
  GI50: 2370 nM
  TGI: 13700 nM
[25]
  GI50: 147 nM
  TGI: 1380 nM
[26]
  GI50: 382 nM
  TGI: > 26800 nM
[27]
  GI50: 204 nM
  TGI: 11800 nM
[28]
  GI50: 372 nM
  TGI: > 100000 nM
[29]
  GI50: 590 nM
  TGI: 22600 nM
[30]
  GI50: 239 nM
  TGI: 1590 nM
[31]
  GI50: 88.1 nM
  TGI: 1960 nM
[32]
  GI50: 1250 nM
  TGI: 22300 nM
[33]
  GI50: 304 nM
  TGI: 15500 nM
[34]
  GI50: 189 nM
  TGI: 7240 nM
[35]
  GI50: 443 nM
  TGI: > 50000 nM
[36]
  GI50: 63.6 nM
  TGI: 1900 nM
[37]
  GI50: 164 nM
  TGI: 1800 nM
[38]
  GI50: 554 nM
  TGI: 11100 nM
[39]
  GI50: 186 nM
  TGI: > 40700 nM
[40]
  GI50: 2100 nM
  TGI: > 48800 nM
[41]
  GI50: 166 nM
  TGI: 11600 nM
[42]
  GI50: 931 nM
  TGI: 9360 nM
[43]
  GI50: 323 nM
  TGI: 31000 nM
[44]
  GI50: 830 nM
  TGI: 14900 nM
[45]
  GI50: 271 nM
  TGI: 24400 nM
[46]
  GI50: 159 nM
  TGI: 1420 nM
[47]
  GI50: 398 nM
  TGI: 14100 nM
[48]
  GI50: 223 nM
  TGI: 5590 nM
[49]
  GI50: 954 nM
  TGI: 5460 nM
[50]
  GI50: 192 nM
  TGI: 1060 nM
[51]
  GI50: 340 nM
  TGI: 13800 nM
[52]
  GI50: 524 nM
  TGI: > 35000 nM
[53]
  GI50: 89.6 nM
  TGI: > 58200 nM
[54]
  GI50: 505 nM
  TGI: 13400 nM
[55]
  GI50: 244 nM
  TGI: 4220 nM
[56]
  GI50: 178 nM
  TGI: 2530 nM
